Experimental data: patent US20240058328A1, “MASITINIB FOR THE TREATMENT OF ALZHEIMER'S DISEASE” (AB SCIENCE, priority 2020, published 2024)

Tested on: patients with Alzheimer's disease
Assay: Phase 3 study AB09004: change from baseline in ADCS-ADL score
Format: in vivo, human
Design: key to δLSM (ADCS-ADL): LSM difference in ADCS-ADL change; positive = improvement
Details: for δLSM (ADCS-ADL) / ΔLSM (ADCS-ADL): 4.5 mg/kg/day; for δLSM (ADCS-ADL): week 24 from baseline; for ΔLSM (ADCS-ADL): vs placebo, week 24; for improved benefit relative to complementary subpopulation: ΔLSM (ADCS-ADL)
Experimental: An international, multicenter, randomized, double-blind, placebo-controlled phase 3 study was conducted with the objective to evaluate oral masitinib at a dose of 4.5 mg/kg/day as a treatment for Alzheimer's disease.
Eligible patients, aged at least 50 years, were diagnosed with dementia of Alzheimer's type according to Diagnostic and Statistical Manual of Mental Disorders (DSM)-IV criteria, and probable Alzheimer's disease according to NINCDS-ADRDA (National Institute of Neurological and Communicative Diseases and Stroke/Alzheimer's Disease and Related Disorders Association) criteria. […] Patients with any other cause of dementia not due to Alzheimer's disease were ineligible for the study.
Eligible patients were treated during 24 weeks with masitinib at a dose of 4.5 mg/kg/day (mg per kilo body weight per day) or with placebo. Treatment was administered as add-on therapy in patients who had been treated for a minimum of 6 months with a stable dose of cholinesterase inhibitors (donepezil, rivastigmine or galantamine) and/or memantine, with no changes foreseen in therapy throughout the study.
Primary analysis was based on the co-primary endpoints of: • Change from baseline in Alzheimer's Disease Cooperative Study Activities of Daily Living (ADCS-ADL) score. The ADCS-ADL assesses the competence of patients with Alzheimer's disease in basic and instrumental activities of daily living (ADLs). • Change from baseline in Alzheimer's Disease Assessment Scale-Cognitive Subscale (ADAS-Cog). The ADAS-Cog assesses cognition and memory.
Treatment effect (masitinib versus placebo) was assessed based on absolute change from baseline to week 24 by using an analysis of covariance model (ANCOVA linear model) with the following factors: treatment, baseline value, and stratification criteria of baseline MMSE score, age, ADCS-ADL total score, and ADAS-Cog total score.
For ADCS-ADL, the global score (i.e., the sum of 23 items rated by the caregiver) was used with a range from 0 to 78, wherein 78 implies full functioning with no impairment. Thus, a higher score signifies greater functional ability, while a lower score signifies greater (worse) impairment. Results are expressed as a least-squares means difference (δLSM) of absolute change in ADCS-ADL score from baseline; that is to say, the change over time in the ADCS-ADL score, or in other words the difference between the ADCS-ADL score at baseline (before treatment initiation) and the ADCS-ADL score after treatment with masitinib or with placebo. An increase in ADCS-ADL score with respect to baseline (i.e., a positive δLSM) indicates an improvement in the patient and therefore disease stability, whereas a decrease in ADCS-ADL score with respect to baseline (i.e., negative δLSM) indicates a worsening in the patient and therefore disease progression. Treatment-effect is reported as the difference between treatment-arms (ΔLSM) (calculated as δLSM[masitinib] minus δLSM[placebo]), with a positive value indicating a beneficial effect of treatment with masitinib as compared to treatment with placebo. In a scenario where both treatment-arms show worsening in activities of daily living (i.e., a negative δLSM), then a positive ΔLSM indicates a beneficial treatment effect for masitinib, i.e., the rate of decline in masitinib treated patients is slower than that of patients from the placebo-arm.
The comparison was carried out using the following information: • δLSM: least-squares means difference of absolute change in endpoint score at week 24 from baseline, either according to ADAS-Cog assessment or to ADCS-ADL assessment. • ΔLSM: Difference between treatment-arms (treatment-effect) calculated as δLSM[masitinib] minus δLSM[placebo]. • Δsub/Δoverall: Ratio of subpopulation's placebo-controlled treatment-effect (ΔLSM at W24 for masitinib 4.5 mg/kg/d parallel arm) versus overall study population's placebo-controlled treatment-effect (ΔLSM at W24 for masitinib 4.5 mg/kg/d parallel arm). […]

Question: How did the “δLSM (ADCS-ADL)” value (MMSE [12-20]) turn out when Cc1ccc(NC(=O)c2ccc(CN3CCN(C)CC3)cc2)cc1Nc1nc(-c2cccnc2)cs1 [masitinib, 4-(4-methylpiperazin-1-ylmethyl)-N-[4-methyl-3-(4-pyridin-3ylthiazol-2-ylamino)phenyl]benzamide] was run?
Answer: The value was −0.4369.

Question: And the “ΔLSM (ADCS-ADL)” value (MMSE [25-21])?
Answer: Its value is “+2.7435 points”.

Question: And the “ΔLSM (ADCS-ADL)” value (MMSE [25-21], listed as M4.5, 4.5 mg/kg/day)?
Answer: The value was 2.7435 points.

Question: And the “δLSM (ADCS-ADL)” value (MMSE [25-21])?
Answer: The value was 3.5738.

Question: What about the “ΔLSM (ADCS-ADL)” value (MMSE ≥13) of the same compound?
Answer: The value was 2.0496 points.

Question: What about the “δLSM (ADCS-ADL)” value (MMSE ≥13) of the same compound?
Answer: Its value is 1.1204.

Question: And the “ΔLSM (ADCS-ADL)” value (MMSE ≥14)?
Answer: The value was “+2.4046 points”.

Question: What about the “ΔLSM (ADCS-ADL)” value (MMSE ≥14, listed as M4.5, 4.5 mg/kg/day) of the same compound?
Answer: The value was 2.4046 points.

Question: What about the “δLSM (ADCS-ADL)” value (MMSE ≥14) of the same compound?
Answer: The value was 1.3505.

Question: What about the “ΔLSM (ADCS-ADL)” value (MMSE ≥15) of the same compound?
Answer: Its value is 2.2738 points.

Question: What about the “δLSM (ADCS-ADL)” value (MMSE ≥15) of the same compound?
Answer: Its value is 1.3520.

Question: What about the “ΔLSM (ADCS-ADL)” value (MMSE ≥16) of the same compound?
Answer: The value was 2.5566 points.

Question: And the “δLSM (ADCS-ADL)” value (MMSE ≥16)?
Answer: Its value is 1.6088.

Question: What about the “ΔLSM (ADCS-ADL)” value (MMSE ≥17) of the same compound?
Answer: The value was 2.2870 points.

Question: And the “δLSM (ADCS-ADL)” value (MMSE ≥17)?
Answer: Its value is 1.0330.

Question: What about the “ΔLSM (ADCS-ADL)” value (Overall Population) of the same compound?
Answer: Its value is 1.8190 points.

Question: What about the “δLSM (ADCS-ADL)” value (Overall Population) of the same compound?
Answer: Its value is 1.0107.

Question: And the Δsub/Δoverall (ratio of ΔLSM (ADCS-ADL) at W24, Baseline ADCS-ADL >39 vs overall study population)?
Answer: The Δsub/Δoverall was 1.14.

Question: What about the Δsub/Δoverall (ratio of ΔLSM (ADCS-ADL) at W24, Baseline ADCS-ADL >47 vs overall study population) of the same compound?
Answer: Its Δsub/Δoverall is 1.19.

Question: And the Δsub/Δoverall (ratio of ΔLSM (ADCS-ADL) at W24, Baseline ADCS-ADL >55 vs overall study population)?
Answer: The Δsub/Δoverall was 1.75.

Question: And the Δsub/Δoverall (ratio of ΔLSM (ADCS-ADL) at W24, Baseline ADCS-ADL ≥32 vs overall study population)?
Answer: Its Δsub/Δoverall is 1.09.

Question: What about the Δsub/Δoverall (ratio of ΔLSM (ADCS-ADL) at W24, Baseline ADCS-ADL ≥35 vs overall study population) of the same compound?
Answer: The Δsub/Δoverall was 1.11.

Question: And the Δsub/Δoverall (ratio of ΔLSM (ADCS-ADL) at W24, Baseline ADCS-ADL ≥38 vs overall study population)?
Answer: The Δsub/Δoverall was 1.28.

Question: What about the Δsub/Δoverall (ratio of ΔLSM (ADCS-ADL) at W24, Baseline ADCS-ADL ≥41 vs overall study population) of the same compound?
Answer: The Δsub/Δoverall was 1.11.

Question: And the Δsub/Δoverall (ratio of ΔLSM (ADCS-ADL) at W24, Baseline ADCS-ADL ≥50 vs overall study population)?
Answer: The Δsub/Δoverall was 1.78.

Question: What about the Δsub/Δoverall (ratio of ΔLSM (ADCS-ADL) at W24, MMSE [20-12] vs overall study population) of the same compound?
Answer: Its Δsub/Δoverall is 0.76.

Question: And the Δsub/Δoverall (ratio of ΔLSM (ADCS-ADL) at W24, MMSE [25-21] vs overall study population)?
Answer: The Δsub/Δoverall was 1.51.

Question: And the Δsub/Δoverall (ratio of ΔLSM (ADCS-ADL) at W24, MMSE ≥13 vs overall study population)?
Answer: The Δsub/Δoverall was 1.13.

Question: What about the Δsub/Δoverall (ratio of ΔLSM (ADCS-ADL) at W24, MMSE ≥14 vs overall study population) of the same compound?
Answer: Its Δsub/Δoverall is 1.32.

Question: What about the Δsub/Δoverall (ratio of ΔLSM (ADCS-ADL) at W24, MMSE ≥15 vs overall study population) of the same compound?
Answer: The Δsub/Δoverall was 1.25.

Question: And the Δsub/Δoverall (ratio of ΔLSM (ADCS-ADL) at W24, MMSE ≥16 vs overall study population)?
Answer: The Δsub/Δoverall was 1.41.

Question: And the Δsub/Δoverall (ratio of ΔLSM (ADCS-ADL) at W24, MMSE ≥17 vs overall study population)?
Answer: The Δsub/Δoverall was 1.26.

Question: And the “Δsub/Δoverall (percentage improvement)” value (ΔLSM (ADCS-ADL) at W24, Baseline ADCS-ADL >39 vs overall study population)?
Answer: The value was “(14%)”.

Question: And the “Δsub/Δoverall (percentage improvement)” value (ΔLSM (ADCS-ADL) at W24, Baseline ADCS-ADL >47 vs overall study population)?
Answer: The value was “(19%)”.

Question: What about the “Δsub/Δoverall (percentage improvement)” value (ΔLSM (ADCS-ADL) at W24, Baseline ADCS-ADL >55 vs overall study population) of the same compound?
Answer: Its value is 75%.

Question: What about the “Δsub/Δoverall (percentage improvement)” value (ΔLSM (ADCS-ADL) at W24, Baseline ADCS-ADL >55 vs overall study population, listed as M4.5) of the same compound?
Answer: Its value is “(75%)”.

Question: What about the “Δsub/Δoverall (percentage improvement)” value (ΔLSM (ADCS-ADL) at W24, Baseline ADCS-ADL ≥32 vs overall study population) of the same compound?
Answer: Its value is “(9%)”.

Question: What about the “Δsub/Δoverall (percentage improvement)” value (ΔLSM (ADCS-ADL) at W24, Baseline ADCS-ADL ≥35 vs overall study population) of the same compound?
Answer: Its value is “(11%)”.

Question: What about the “Δsub/Δoverall (percentage improvement)” value (ΔLSM (ADCS-ADL) at W24, Baseline ADCS-ADL ≥38 vs overall study population) of the same compound?
Answer: Its value is “(28%)”.

Question: And the “Δsub/Δoverall (percentage improvement)” value (ΔLSM (ADCS-ADL) at W24, Baseline ADCS-ADL ≥41 vs overall study population)?
Answer: Its value is “(11%)”.

Question: What about the “Δsub/Δoverall (percentage improvement)” value (ΔLSM (ADCS-ADL) at W24, Baseline ADCS-ADL ≥50 vs overall study population) of the same compound?
Answer: The value was 78%.

Question: And the “Δsub/Δoverall (percentage improvement)” value (ΔLSM (ADCS-ADL) at W24, Baseline ADCS-ADL ≥50 vs overall study population, listed as M4.5)?
Answer: Its value is “(78%)”.

Question: What about the “Δsub/Δoverall (percentage improvement)” value (ΔLSM (ADCS-ADL) at W24, MMSE [20-12] vs overall study population) of the same compound?
Answer: Its value is “(−24%)”.

Question: And the “Δsub/Δoverall (percentage improvement)” value (ΔLSM (ADCS-ADL) at W24, MMSE [25-21] vs overall study population)?
Answer: Its value is 51%.

Question: What about the “Δsub/Δoverall (percentage improvement)” value (ΔLSM (ADCS-ADL) at W24, MMSE [25-21] vs overall study population, listed as M4.5) of the same compound?
Answer: Its value is “(51%)”.

Question: And the “Δsub/Δoverall (percentage improvement)” value (ΔLSM (ADCS-ADL) at W24, MMSE ≥13 vs overall study population)?
Answer: The value was “(13%)”.

Question: What about the “Δsub/Δoverall (percentage improvement)” value (ΔLSM (ADCS-ADL) at W24, MMSE ≥14 vs overall study population) of the same compound?
Answer: Its value is 32%.

Question: And the “Δsub/Δoverall (percentage improvement)” value (ΔLSM (ADCS-ADL) at W24, MMSE ≥14 vs overall study population, listed as M4.5)?
Answer: The value was “(32%)”.

Question: And the “Δsub/Δoverall (percentage improvement)” value (ΔLSM (ADCS-ADL) at W24, MMSE ≥15 vs overall study population)?
Answer: The value was “(25%)”.

Question: And the “Δsub/Δoverall (percentage improvement)” value (ΔLSM (ADCS-ADL) at W24, MMSE ≥16 vs overall study population)?
Answer: The value was “(41%)”.

Question: What about the “Δsub/Δoverall (percentage improvement)” value (ΔLSM (ADCS-ADL) at W24, MMSE ≥17 vs overall study population) of the same compound?
Answer: Its value is “(26%)”.

Question: And the “improved benefit relative to complementary subpopulation” value (baseline ADAS-Cog ≤25 relative to >25)?
Answer: The value was 84%.

Question: And the “improved benefit relative to complementary subpopulation” value (baseline ADCS-ADL >39 relative to ≤39)?
Answer: The value was 191%.

Question: What about the “improved benefit relative to complementary subpopulation” value (baseline ADCS-ADL >55 relative to ≤55) of the same compound?
Answer: The value was “about 600%”.

Question: And the “improved benefit relative to complementary subpopulation” value (baseline MMSE 25 to 21 relative to MMSE 20 to 12, printed as 'between 99% to 66%')?
Answer: Its value is 99%.
